Results taken from patent US5637731A (priority 1996, dated 1997).
Where a name gives a salt, the structure may show the parent alone. Read-outs that look alike come from different tables or passages of the source.

Experiments:
[1] = target: muscarinic cholinergic receptor; experiment: [^3 H]-Cis-methyldioxolane (^3 H-CD) Binding Assay (High Affinity); conditions: rat cerebral cortex, ^3 H-CD 1.0 nM, 25° C., 120 minutes, pH 7.4; high affinity agonist binding
[2] = target: muscarinic cholinergic receptor; assay type: binding, rat; conditions: pH 7.4
[3] = rat cerebral cortex, ^3 H-QNB 0.25 nM, 25° C., 120 minutes

Row | SMILES | Ki [1] [nM] | Ki [2, 3] [nM] | Ki ([2]; read-out: ^3 H-QNB Ki) [nM]
1 | O=C(OCc1ccccc1)O[C@@H]1CCN(CC#CCN2CCCC2)C1=O [(R)-Carbonic acid 2-oxo-1-[4-(1-pyrrolidinyl)-2-butynyl]-3-pyrrolidinyl phenylmethyl ester] | 110 | 1400 | –
2 | COC(=O)O[C@@H]1CCN(CC#CCN2CCCC2)C1=O [(R)-Carbonic acid methyl 2-oxo-1-[4-(1-pyrrolidinyl)-2-butynyl]-3-pyrrolidinyl ester] | 350 | 27300 | –
3 | CCCCCCCCOC(=O)O[C@@H]1CCN(CC#CCN2CCCC2)C1=O [(R)-Carbonic acid octyl 2-oxo-1-[4-(1-pyrrolidinyl)-2-butynyl]-3-pyrrolidinyl ester] | 76 | 100 | –
4 | CCCCCCCCCC(=O)O[C@@H]1CCN(CC#CCN(C)C)C1=O [(R)-Decanoic acid 1-[4-(dimethylamino)-2-butynyl]-2-oxo-3-pyrrolidinyl ester] | 730 | > 100000 | –
5 | CCCCCCCCCC(=O)O[C@@H]1CCN(CC#CCN2CCCC2)C1=O [(R)-Decanoic acid 2-oxo-1-[4-(1-pyrrolidinyl)-2-butynyl]-3-pyrrolidinyl ester] | 97 | 200 | –
6 | CC(C)C(=O)O[C@@H]1CCN(CC#CC[N+](C)(C)C)C1=O [(R)-N,N, N-Trimethyl-4-[3-(2-methyl-1-oxopropoxy)-2-oxo-1-pyrrolidinyl]-2-butyn-1 aminium iodide] | 240 | 45000 | –
7 | CCCCCCCCNC(=O)O[C@@H]1CCN(CC#CC[N+](C)(C)C)C1=O [(R)-N,N, N-Trimethyl-4-[3-[[(octylamino)carbonyl]oxy]-2-oxo-1-pyrrolidinyl]-2-butyn-1-aminium iodide] | 490 | 500 | –
8 | CCCCCCCCOC(=O)O[C@@H]1CCN(CC#CC[N+](C)(C)C)C1=O [(R)-N,N, N-Trimethyl-4-[3-[[(octyloxy)carbonyl]oxy]-2-oxo-1-pyrrolidinyl]-2-butyn-1-aminium iodide] | 10 | 200 | –
9 | CCCCCCCCNC(=O)O[C@@H]1CCN(CC#CCN(C)C)C1=O [(R)-Octylcarbamic acid 1-[4-(dimethylamino)-2-butynyl]-2-oxo-2-pyrrolidinyl ester] | 1430 | 32000 | –
10 | CCCCCCCCNC(=O)O[C@@H]1CCN(CC#CCN2CCCC2)C1=O [(R)-Octylcarbamic acid 2-oxo-1-[4-(1-pyrrolidinyl)-2-butynyl]-3-pyrrolidinyl ester] | 240 | 200 | –
11 | CC(C)C(=O)O[C@@H]1CCN(CC#CCN(C)C)C1=O [(R)-Porpanoic acid 2-methyl-1-[4-(dimethylamino)-2-butynyl]-2-oxo-3-pyrrolidinyl ester] | 26000 | 711000 | –
12 | CC(C)(C)[Si](C)(C)O[C@H]1CCN(CC#CCN2CCC2)C1=O [(S)-1-[4-(1-Azetidinyl)-2-butynyl]-3-[[(1,1-dimethylethyl)-dimethylsilyl]oxy]-2-pyrrolidinone] | 5600 | 5800 | –
13 | CS[C@H]1CCN(CC#CCN(C)C)C1=O [(S)-1-[4-(Dimethylamino)-2-butynyl]-3-(methylthio)-2-pyrrolidinone] | 6400 | > 100000 | –
14 | CN(C)CC#CCN1CC[C@H](O[Si](C)(C)C(C)(C)C)C1=O [(S)-1-[4-(Dimethylamino)-2-butynyl]-3-[[(1,1-dimethylethyl)-dimethylsilyl]oxy]-2-pyrrolidinone] | 18200 | 14300 | –
15 | CN(C)CC#CCN1CC[C@H](O)C1=O [(S)-1-[4-(Dimethylamino)-2-butynyl]-3-hydroxy-2-pyrrolidinone] | 43 | 26900 | –
16 | C[C@H]1CCN(CC#CCN(C)C)C1=O [(S)-1-[4-(Dimethylamino)-2-butynyl]-3-methyl-2-pyrrolidinone] | 680 | 35500 | –
17 | CCN(CC)CC#CCN1CC[C@H](O[Si](C)(C)C(C)(C)C)C1=O [(S)-1-[4-(diethylamino)-2-butynyl]-3-[[(1,1-dimethylethyl)dimethylsily]oxy]-2-pyrrolidinone] | 15400 | 7600 | –
18 | CN(C)CC#CCN1CC[C@H](OC(=O)C(C)(C)C)C1=O [(S)-2,2-Dimethylpropanoic acid 1-[4-(dimethylamino)-2-butynyl]-2-oxo-3-pyrrolidinyl ester] | 38800 | 484000 | –
19 | CC(C)(C)C(=O)O[C@H]1CCN(CC#CCN2CCCC2)C1=O [(S)-2,2-Dimethylpropanoic acid 2-oxo-1-[4-(1-pyrrolidinyl)-2-butynyl]-3-pyrrolidinyl ester] | 370 | 4600 | –
20 | CC(C)C(=O)O[C@H]1CCN(CC#CCN2CCCC2)C1=O [(S)-2-Methylpropanoic acid 2-oxo-1-[4-(1-pyrrolidinyl)-2-butynyl]-3-pyrrolidinyl ester] | 162 | 7200 | –
21 | CC(=O)O[C@H]1CCN(CC#CCN(C)CCO)C1=O [(S)-3-(Acetyloxy)-1-[4-[2-(hydroxyethyl)methylamino]-2-butynyl]-2-pyrrolidinone] | 16200 | > 100000 | –
22 | CC(=O)O[C@H]1CCN(CC#CCN(C)CCCCO)C1=O [(S)-3-(Acetyloxy)-1-[4-[(4-hydroxybutyl)methylamino]-2-butynyl]-2-pyrrolidinone] | 8210 | > 100000 | –

Row | SMILES | Ki [1] [nM] | Ki [2, 3] [nM] | Ki ([2]; read-out: ^3 H-QNB Ki) [nM]
23 | CS[C@H]1CCN(CC#CCN2CCCC2)C1=O [(S)-3-(Methylthio)-1-[4-(1-pyrrolidinyl)-2-butynyl]-2-pyrrolidinone] | 1040 | 53000 | –
24 | N[C@H]1CCN(CC#CCN2CCCC2)C1=O [(S)-3-Amino-1-[4-(1-pyrrolidinyl)-2-butynyl]-2-pyrrolidinone dihydrochloride] | 410 | 73600 | –
25 | CN(C)CC#CCN1CC[C@H](N)C1=O [(S)-3-Amino-1-[4-(dimethylamino)-2-butynyl]-2-pyrrolidinone dihydrochloride] | 2600 | > 100000 | –
26 | [N-]=[N+]=N[C@H]1CCN(CC#CCN2CCCC2)C1=O [(S)-3-Azido-1-[4-(1-pyrrolidinyl)-2-butynyl]-2-pyrrolidinone] | 160 | 3140 | –
27 | CN(C)CC#CCN1CC[C@H](N=[N+]=[N-])C1=O [(S)-3-Azido-1-[4-(dimethylamino)-2-butynyl]-2-pyrrolidinone] | 630 | > 100000 | –
28 | O=C1[C@@H](O)CCN1CC#CCn1ccnc1 [(S)-3-Hydroxy-1-[4(1H-imidazol-1-yl)-2-butynyl]-2-pyrrolidinone] | 120 | > 100000 | –
29 | O=C1[C@@H](O)CCN1CC#CCN1CCCC1 [(S)-3-Hydroxy-1-[4-(1-pyrrolidinyl)-2-butynyl]-2-pyrrolidinone] | 7 | 1700 | –
30 | CN(CC#CCN1CC[C@H](O)C1=O)CCO [(S)-3-Hydroxy-1-[4-[(2-hydroxyethyl)methylamino]-2-butynyl]-2-pyrrolidinone] | 1820 | > 100000 | –
31 | CN(CC#CCN1CC[C@H](O)C1=O)CCCCO [(S)-3-Hydroxy-1-[4-[(4-hydroxybutyl)methylamino]-2-butynyl]-2-pyrrolidinone] | 1300 | > 100000 | –
32 | CC(C)(C)[Si](C)(C)O[C@H]1CCN(CC#CCN2CCCC2)C1=O [(S)-3-[[(1,1-Dimethylethyl)-dimethylsily]0xy]-1-[4-(1-pyrrolidinyl)-2-butynyl]-2-pyrrolidinone] | 3000 | 2700 | –
33 | CC(C)(C)[Si](C)(C)O[C@H]1CCN(CC#CCn2ccnc2)C1=O [(S)-3-[[(1,1-Dimethylethyl)dimethylsilyl]oxy]-1-[4-(1H-imidazol-1-yl)-2-butynyl]-2-pyrrolidinone] | 24300 | > 100000 | –
34 | CNC(=O)O[C@H]1CCN(CC#CCN2CCCC2)C1=O [(S)-3-[[Methylamino)carbonyl]oxy]-1-[4-(1-pyrrolidinyl)-2-butynyl]-2-pyrrolidinone] | > 100000 | 433000 | –
35 | C[N+](C)(C)CC#CCN1CC[C@H](N=[N+]=[N-])C1=O [(S)-4-(3-Azido-2-oxo-1-pyrrolidinyl)-N,N,N-trimethyl-2-butyn-1-aminium iodide] | 45 | 1600 | –
36 | CC(C)(C)C(=O)O[C@H]1CCN(CC#CC[N+](C)(C)C)C1=O [(S)-4-[3-(2,2-Dimethyl-1-oxopropoxy)-2-oxo-1-pyrrolidinyl]-N,N, N-trimethyl-2-butyn-1-aminium iodide] | 7800 | 478000 | –
37 | COC(=O)O[C@H]1CCN(CC#CCN(C)C)C1=O [(S)-Carbonic acid 1-[4-(dimethylamino)-2-butynyl]-2-oxo-3-pyrrolidinyl methyl ester] | 2160 | 15100 | –
38 | CCCCCCCCOC(=O)O[C@H]1CCN(CC#CCN(C)C)C1=O [(S)-Carbonic acid 1-[4-(dimethylamino)-2-butynyl]-2-oxo-3-pyrrolidinyl octyl ester] | 306 | 10000 | –
39 | CCCCCCOC(=O)O[C@H]1CCN(CC#CCN2CCCC2)C1=O [(S)-Carbonic acid hexyl 2-oxo-1-[4-(1-pyrrolidinyl)-2-butynyl]-3-pyrrolidinyl ester] | 15 | 1700 | –
40 | COC(=O)O[C@H]1CC(=O)N(CC#CCN2CCCC2)C1 [(S)-Carbonic acid methyl 2-oxo-1-[4-(1-pyrrolidinyl)-2-butynyl]-4-pyrrolidinyl ester] | 850 | 1800 | –
41 | CCCCCCCCCC(=O)O[C@H]1CCN(CC#CCN(C)C)C1=O [(S)-Decanoic acid 1-[4-(dimethylamino)2-butynyl]-2-oxo-3-pyrrolidinyl ester] | 23 | 600 | –
42 | CCCCCCCCCC(=O)O[C@H]1CC(=O)N(CC#CCN2CCCC2)C1 [(S)-Decanoic acid 2-oxo-1-[4-(1-pyrrolidinyl)-2-butynyl]-4-pyrrolidinyl ester] | 330 | 35 | –
43 | CN(C)C(=O)O[C@H]1CCN(CC#CCN2CCCC2)C1=O [(S)-Dimethylcarbamic acid 2-oxo-1-[4-(1-pyrrolidinyl)-2-butynyl]-3-pyrrolidinyl ester] | 9560 | – | 40300
